Several values for one entry are separate records, joined by “and”; a condition that tells them apart may be missing. Equal entries are not always repeated.
Assays:
IgE (Immunoglobulin E) = assay: IgE concentration in blood serum (ELISA); format: in vivo, NC/Nga mice
Procedure: The blood collected in a mouse was left at room temperature for 30 minutes and then centrifuged at 3000 rpm for 20 minutes. The blood serum obtained therefrom was analyzed via ELISA kit (Shibayagi, Japan).

[1] = Body weight of atopy-induced NC/Nga mice; conditions: DNCB atopy-induced NC/Nga mice
Excerpt: 20 fourteen-week old female NC/Nga mice (Central Lab. Animal Inc., Korea) with a body weight of about 20 g were used. The experimental animals were allowed to adapt for 7 days in the animal rooms before the experiment, and observed for general symptoms.
A test solution prepared by dissolving a mixture consisting of acetone and olive oil in 3:1 ratio in dinitrochlorobenzene (DNCB) to a concentration of about 1% to about 0.2% was coated on the skin of the NC/Nga mice to induce atopic dermatitis.
Body weight was measured twice from the time when the test material was administered.

[2] = tested on: atopic dermatitis induced with DNCB in NC/Nga mice; assay: Sensory evaluation (clinical visual skin score) in DNCB-induced atopic dermatitis; format: in vivo; parameters: key: total of five item scores, 0 = lowest, 15 = highest; conditions: scale 0-15; for Sensory Evaluation Score, group mean: mean of 5 mice; for Sensory Evaluation Score mean: mean of A and B; for Sensory Evaluation Score mean / Sensory Evaluation Score A / Sensory Evaluation Score B: individual mouse; for Sensory Evaluation Score A: scorer A; for Sensory Evaluation Score B: scorer B
Procedure: Sensory evaluation was performed using the general clinical visual method. The result of visual evaluation was indicated in terms of the total score obtained by adding each of the evaluation scores for the five items shown in the below table. The scoring for the level of dermatitis was performed by two or more persons experienced in this experiment under mutual agreement. The score was set from “0” point, the lowest, to “15” point, the highest (Table 2).

Compound: C=Cc1c(C)c2cc3nc(c4c5[n-]c(cc6nc(cc1[n-]2)C(C)=C6CC)c(C)c5C(=O)[C@@H]4C(=O)OC)[C@@H](CCC(=O)OC/C=C(\C)CCC[C@H](C)CCC[C@H](C)CCCC(C)C)[C@@H]3C.[Mg+2] [chlorophyll a]
- IgE Average Concentration (IgE (Immunoglobulin E); blood serum, 5 mg/kg oral daily, individual specimen, 5 mg/kg): 108.757 ng/mL and 115.652 ng/mL and 129.408 ng/mL and 88.578 ng/mL and 104.912 ng/mL
- IgE Group Average (IgE (Immunoglobulin E); blood serum, 5 mg/kg oral daily, mean of 5 mice, 5 mg/kg): 109.46 ± 14.95 ng/mL
- value of IgE (IgE (Immunoglobulin E); in words, dose not split): decreased
- body weight ([1]; 1 mg/kg oral daily, day 1, individual mouse, 1 mg/kg): 25.6 g and 27.4 g and 24.5 g and 24 g and 26.1 g
- body weight, group mean ([1]; 1 mg/kg oral daily, day 1, mean of 5 mice): 25.52 g
- body weight ([1]; 1 mg/kg oral daily, day 3, individual mouse, 1 mg/kg): 25.7 g and 27.6 g and 25.8 g and 25.5 g and 27.1 g
- body weight, group mean ([1]; 1 mg/kg oral daily, day 3, mean of 5 mice): 26.34 g
- body weight ([1]; 1 mg/kg oral daily, day 5, individual mouse, 1 mg/kg): 27.3 g and 28.2 g and 26.5 g and 26 g and 27.8 g
- body weight, group mean ([1]; 1 mg/kg oral daily, day 5, mean of 5 mice): 27.16 g
- body weight ([1]; 1 mg/kg oral daily, day 7, individual mouse, 1 mg/kg): 27.3 g and 27.6 g and 26.5 g and 24.7 g and 28.6 g
- body weight, group mean ([1]; 1 mg/kg oral daily, day 7, mean of 5 mice): 26.94 g
- body weight ([1]; 1 mg/kg oral daily, day 9, individual mouse, 1 mg/kg): 28.4 g and 27.4 g and 25.8 g and 25.7 g and 27.7 g
- body weight, group mean ([1]; 1 mg/kg oral daily, day 9, mean of 5 mice): 27 g
- body weight, group mean ([1]; 1 mg/kg oral daily, day 11 (time of sacrifice), mean of 5 mice, 1 mg/kg): 28.36 ± 1.045 g and 28.36 g
- body weight ([1]; 1 mg/kg oral daily, day 11, individual mouse, 1 mg/kg): 29 g and 28.9 g and 27.5 g and 27 g and 29.4 g
- body weight ([1]; 5 mg/kg oral daily, day 1, individual mouse, 5 mg/kg): 24.9 g and 28.6 g and 27.5 g (2×) and 27.1 g
- body weight, group mean ([1]; 5 mg/kg oral daily, day 1, mean of 5 mice): 27.12 g
- body weight ([1]; 5 mg/kg oral daily, day 3, individual mouse, 5 mg/kg): 24.8 g and 29.6 g and 27.1 g and 29 g and 27.4 g
- body weight, group mean ([1]; 5 mg/kg oral daily, day 3, mean of 5 mice): 27.58 g
- body weight ([1]; 5 mg/kg oral daily, day 5, individual mouse, 5 mg/kg): 25.9 g and 30.8 g and 26.7 g and 29.3 g and 28 g
- body weight, group mean ([1]; 5 mg/kg oral daily, day 5, mean of 5 mice): 28.14 g
- body weight ([1]; 5 mg/kg oral daily, day 7, individual mouse, 5 mg/kg): 25.9 g and 30.6 g and 27.2 g and 30.2 g and 28.2 g
- body weight, group mean ([1]; 5 mg/kg oral daily, day 7, mean of 5 mice): 28.42 g
- body weight ([1]; 5 mg/kg oral daily, day 9, individual mouse, 5 mg/kg): 25.3 g and 30.6 g and 27.2 g and 29 g and 27 g
- body weight, group mean ([1]; 5 mg/kg oral daily, day 9, mean of 5 mice): 27.82 g
- body weight, group mean ([1]; 5 mg/kg oral daily, day 11 (time of sacrifice), mean of 5 mice, 5 mg/kg): 28.86 ± 2.033 g and 28.86 g
- body weight ([1]; 5 mg/kg oral daily, day 11, individual mouse, 5 mg/kg): 25.7 g and 31.3 g and 29.2 g and 29.5 g and 28.6 g
- change in body weight by the administration ([1]; oral administration, in words): no decrease
- Sensory Evaluation Score, group mean ([2]; 1 mg/kg oral daily): 2.7±0.758 and 2.7
- Sensory Evaluation Score mean ([2]; 1 mg/kg oral daily): 1.5 and 3 (2×) and 3.5 and 2.5
- Sensory Evaluation Score A ([2]; 1 mg/kg oral daily): 2 (2×) and 3 (3×)
- Sensory Evaluation Score B ([2]; 1 mg/kg oral daily): 1 and 4 (2×) and 2 and 3
- Sensory Evaluation Score, group mean ([2]; 5 mg/kg oral daily): 2.7±1.789 and 2.7
- Sensory Evaluation Score mean ([2]; 5 mg/kg oral daily): 5.5 and 1.5 (3×) and 3.5
- Sensory Evaluation Score A ([2]; 5 mg/kg oral daily): 5 and 2 (3×) and 3
- Sensory Evaluation Score B ([2]; 5 mg/kg oral daily): 6 and 1 (3×) and 4
